The values below come from patent publication US6369273B1, “Chemical compounds and their use to elevate pyruvate dehydrogenase activity” (AstraZeneca AB, priority 1998, dated 2002).

The subject of data set [1] is PDH. To be noted: cited from earlier work.
For data set [2] the following is noted: after repeated administration (Evans and Stacpoole 1982); cited from earlier work.

The melting point is the temperature, or range, at which the solid turns liquid. The compound `Cc1cc(C(=O)c2ccccc2)ccc1NC(=O)C(C)(O)C(F)(F)F` (centres unmarked) displayed a melting point of 123 to 124 °C.
The same measure, in the same setting: then `C[C@@](O)(C(=O)Nc1ccc(S(=O)(=O)c2ccccc2)cc1F)C(F)(F)F`, with 121 to 122 °C.
Take `O=C(O)C(Cl)Cl` [DCA, dichloroacetic acid]: in data set [1] (after acute administration in animals (Vary et al., 1988)), the “activity of PDH” value is given as “increases the activity of PDH”. In addition, the “proportion of PDH in its active form” value in data set [1] (single administration, 150 mg/kg, intraperitoneally (Vary et al. 1988)) is “increased the proportion of PDH in its active form”. In addition, the plasma glucose result in data set [2] is reported as “significant decrease in plasma glucose”.
